Laboratory results taken from patent US4808711A, “Cephalosporin derivatives” (Sankei Pharmaceutical Co., Ltd., priority 1985, dated 1989).
In brackets after ≈: the same amount, converted by molar mass.

What was measured:
Type in all cases: cell-based
S. aureus TASAKI = assay: MIC, S. aureus TASAKI; conditions: Staphylococcus aureus; S. aureus TASAKI; standard method of Japanese Chemotherapy Association; read-out: MIC
Experimental: (§1) The minimum inhibition concentrations (MIC) of the compounds obtained by the present invention were measured according to the standard method of Japanese Chemotherapy Association.

S. aureus 209P JC-1 = assay: MIC, S. aureus 209P JC-1; conditions: Staphylococcus aureus; S. aureus 209P JC-1; read-out: MIC
Experimental: as §1

S. aureus ATCC25923 = assay: MIC, S. aureus ATCC25923; conditions: Staphylococcus aureus; S. aureus ATCC25923; read-out: MIC
Experimental: as §1

S. aureus Smith = assay: MIC, S. aureus Smith; conditions: Staphylococcus aureus, read-out: MIC
Experimental: as §1

S. epidermidis ATCC14990 = assay: MIC, S. epidermidis ATCC14990; conditions: Staphylococcus epidermidis, read-out: MIC
Experimental: as §1

S. faecalis IFO3826 = assay: MIC, S. faecalis IFO3826; conditions: Enterococcus faecalis, read-out: MIC
Experimental: as §1

B. subtilis ATCC6633 = assay: MIC, B. subtilis ATCC6633; conditions: Bacillus subtilis; B. subtilis ATCC6633; read-out: MIC
Experimental: as §1

S. anatum 677-69 = assay: MIC, S. anatum 677-69; conditions: Salmonella enterica, 67769, read-out: MIC
Experimental: as §1

S. newport 563 = assay: MIC, S. newport 563; conditions: Salmonella enterica, read-out: MIC
Experimental: as §1

S. paratyphi A 144-12-93 = assay: MIC, S. paratyphi A 144-12-93; conditions: Salmonella enterica, PARATYPHI
Experimental: as §1

S. paratyphi B = assay: MIC, S. paratyphi B; conditions: Salmonella enterica, PARATYPHI
Experimental: as §1

S. paratyphi C 33-76 = assay: MIC, S. paratyphi C 33-76; conditions: Salmonella enterica, PARATYPHI
Experimental: as §1

S. typhi 1099-77 = assay: MIC, S. typhi 1099-77; conditions: Salmonella enterica, TYPHI
Experimental: as §1

S. typhimurium ATCC13311 = assay: MIC, S. typhimurium ATCC13311; conditions: Salmonella enterica, read-out: MIC
Experimental: as §1

S. typhimurium IFO 12529 = assay: MIC, S. typhimurium IFO 12529; conditions: Salmonella enterica, read-out: MIC
Experimental: as §1

S. boyadii CDC 2064-59 = assay: MIC, S. boyadii CDC 2064-59
Experimental: as §1

S. dysenteriae 4379-60 = assay: MIC, S. dysenteriae 4379-60; conditions: Shigella dysenteriae, 437960
Experimental: as §1

[1] = system: S. flexneri 2a CDC 4807-62; assay: MIC, S. flexneri 2a CDC 4807-62; conditions: Shigella flexneri, read-out: MIC
Experimental: as §1

S. flexneri Y NCTC 9730 = assay: MIC, S. flexneri Y NCTC 9730; conditions: Shigella flexneri, NCTC9730, read-out: MIC
Experimental: as §1

S. sonnei SH72-415 = assay: MIC, S. sonnei SH72-415; conditions: Shigella sonnei, SH72415, read-out: MIC
Experimental: as §1

E. coli ATCC25922 = assay: MIC, E. coli ATCC25922; conditions: Escherichia coli, read-out: MIC
Experimental: as §1

E. coli NIHJ JC-2 = assay: MIC, E. coli NIHJ JC-2; conditions: Escherichia coli, NIHJJC2, read-out: MIC
Experimental: as §1

C. freundii IFO12681 = assay: MIC, C. freundii IFO12681; conditions: Citrobacter freundii, read-out: MIC
Experimental: as §1

S. marcescens IFO12648 = assay: MIC, S. marcescens IFO12648; conditions: Serratia marcescens, read-out: MIC
Experimental: as §1

E. cloacae ATCC13047 = assay: MIC, E. cloacae ATCC13047; conditions: Enterobacter cloacae
Experimental: as §1

K. pneumoniae ATCC27736 = assay: MIC, K. pneumoniae ATCC27736; conditions: Klebsiella pneumoniae, read-out: MIC
Experimental: as §1

P. mirabilis IFO3849 = assay: MIC, P. mirabilis IFO3849; conditions: Proteus mirabilis, read-out: MIC
Experimental: as §1

P. rettgeri ATCC14505 = assay: MIC, P. rettgeri ATCC14505; conditions: Providencia rettgeri, read-out: MIC
Experimental: as §1

P. vulgaris ATCC6380 = assay: MIC, P. vulgaris ATCC6380; conditions: Proteus vulgaris, read-out: MIC
Experimental: as §1

P. vulgaris ATCC6398 = assay: MIC, P. vulgaris ATCC6398; conditions: Proteus vulgaris, read-out: MIC
Experimental: as §1

P. aeruginosa ATCC9721 = assay: MIC, P. aeruginosa ATCC9721; conditions: Pseudomonas aeruginosa; P. aeruginosa ATCC9721; read-out: MIC
Experimental: as §1

P. cepacia ATCC25416 = assay: MIC, P. cepacia ATCC25416; conditions: Burkholderia cepacia, read-out: MIC
Experimental: as §1

P. maltophilia ATCC13637 = assay: MIC, P. maltophilia ATCC13637; conditions: Stenotrophomonas maltophilia
Experimental: as §1

P. putida ATCC12633 = assay: MIC, P. putida ATCC12633; conditions: Pseudomonas putida
Experimental: as §1

P. fluorescens ATCC13525 = assay: MIC, P. fluorescens ATCC13525; conditions: Pseudomonas fluorescens, read-out: MIC
Experimental: as §1

Structure (SMILES): Cn1nnnc1SCC1=C(C(=O)O)N2C(=O)C(NC(=O)C(=NOCC(=O)NNC(=O)c3ccc(O)c(O)c3)c3csc(N)n3)C2SC1 (centres unmarked) [Example 62]
- MIC (S. aureus TASAKI): 1.56 µg/mL (≈ 2.21 µM)
- MIC (S. aureus 209P JC-1): 0.39 µg/mL (≈ 0.553 µM)
- MIC (S. aureus ATCC25923): 0.39 µg/mL (≈ 0.553 µM)
- MIC (S. aureus Smith): 3.13 µg/mL (≈ 4.44 µM)
- MIC (S. epidermidis ATCC14990): 0.39 µg/mL (≈ 0.553 µM)
- MIC (S. faecalis IFO3826): > 100 µg/mL
- MIC (B. subtilis ATCC6633): 0.39 µg/mL (≈ 0.553 µM)
- MIC (S. anatum 677-69): 0.025 µg/mL (≈ 0.0354 µM)
- MIC (S. newport 563): 0.05 µg/mL (≈ 0.0708 µM)
- MIC (S. paratyphi A 144-12-93): 0.025 µg/mL (≈ 0.0354 µM)
- MIC (S. paratyphi B): 0.012 µg/mL (≈ 0.017 µM)
- MIC (S. paratyphi C 33-76): 0.012 µg/mL (≈ 0.017 µM)
- MIC (S. typhi 1099-77): ≤ 0.006 µg/mL
- MIC (S. typhimurium ATCC13311): 0.025 µg/mL (≈ 0.0354 µM)
- MIC (S. typhimurium IFO 12529): 0.05 µg/mL (≈ 0.0708 µM)
- MIC (S. boyadii CDC 2064-59): 0.39 µg/mL (≈ 0.553 µM)
- MIC (S. dysenteriae 4379-60): 0.025 µg/mL (≈ 0.0354 µM)
- MIC [1]: 0.1 µg/mL (≈ 0.142 µM)
- MIC (S. flexneri Y NCTC 9730): 0.78 µg/mL (≈ 1.11 µM)
- MIC (S. sonnei SH72-415): 0.05 µg/mL (≈ 0.0708 µM)
- MIC (E. coli ATCC25922): 0.2 µg/mL (≈ 0.283 µM)
- MIC (E. coli NIHJ JC-2): 0.78 µg/mL (≈ 1.11 µM)
- MIC (C. freundii IFO12681): 0.39 µg/mL (≈ 0.553 µM)
- MIC (S. marcescens IFO12648): 0.39 µg/mL (≈ 0.553 µM)
- MIC (E. cloacae ATCC13047): 3.13 µg/mL (≈ 4.44 µM)
- MIC (K. pneumoniae ATCC27736): 0.012 µg/mL (≈ 0.017 µM)
- MIC (P. mirabilis IFO3849): 0.39 µg/mL (≈ 0.553 µM)
- MIC (P. rettgeri ATCC14505): 1.56 µg/mL (≈ 2.21 µM)
- MIC (P. vulgaris ATCC6380): 0.39 µg/mL (≈ 0.553 µM)
- MIC (P. vulgaris ATCC6398): 0.05 µg/mL (≈ 0.0708 µM)
- MIC (P. aeruginosa ATCC9721): 0.1 µg/mL (≈ 0.142 µM)
- MIC (P. cepacia ATCC25416): 0.78 µg/mL (≈ 1.11 µM)
- MIC (P. maltophilia ATCC13637): 1.56 µg/mL (≈ 2.21 µM)
- MIC (P. putida ATCC12633): 1.56 µg/mL (≈ 2.21 µM)
- MIC (P. fluorescens ATCC13525): 12.5 µg/mL (≈ 17.7 µM)
